Data taken from patent US9199885B2, “Utilization of iron salts to stabilize and/or disinfect biosolids” (The Administrators of the Tulane Educational Fund, priority 2013, dated 2015).

Experiments:
biomass = settings: endogenous respiration, no added oxygen or substrate; cited from earlier work
[1] = ORP of treated heat-dried biosolids; format: physicochemical; settings: post treatment
Procedure: After the heat drying process, the product was tested for total solids contents. Based on the results, a 2% solution of said product in effluent was made and poured into 600 mL narrow neck glass bottles, along with a seeding of 3000 mg/L for each bottle. The system was then sealed and set up in a 20° C. water bath for real time monitoring on oxygen uptake for 96 hours. pH and ORP values were assessed at the beginning and the end of the tests.

[2] = system: return activated sludge (RAS) seed microorganisms; test: Aerobic respirometry: specific oxygen uptake rate (SOUR) of iron-dosed, heat-dried biosolids; settings: for time until SOUR reached below the stable criteria requirement: 1.5% ferrate as iron by TS
Procedure: Thickened sewage sludge was poured into ster[…] & Bird B-Ker polycarbonate jars with a sampling port for flash mixing and flocculation in amounts of 1 L to 2 L. The ferric chloride/ferrate dose was delivered by syringe to the jar test beakers. The ferric chloride dose was calculated by obtaining the total solids content of the sludge sample first and taking 2% of the result. The ferrate dose was calculated after computing the final synthesized concentration of ferrate in buffer solution. Both the ferrate and ferric chloride doses were based on mass rather than volume. The ferrate solution strength was calculated based on mass instead of volume to minimize errors in the dose calculations; these errors are associated with off-gases from the ferrate solution changing the volume of ferrate within the syringe. Of the six jars, one jar of raw sludge served as the control and five jars were used to test various dosages. The ferric chloride was added first while the sludge samples were mixed at a speed of 300 rpm; after thorough mixing (about 10 minutes), the ferrate was added and the mixture was mixed at 300 rpm for about 10 minutes until thoroughly mixed. Well-mixed sludge was then transferred into centrifuge tubes and centrifuged, and then the settled solids were collected and spread on a baking pan and heat dried for about 30 minutes. Batch respirometer tests were conducted by dosing microbial culture with an amount of organic chemical or wastewater followed by monitoring the reactions through measurement of oxygen uptake in aerobic tests or gas production in anoxic and methanogenic tests. Batch tests are transient, non-steady-state reactions in which both substrate and biomass concentrations change throughout the biodegradation reaction. The procedures generally involve the following steps. A sample of wastewater or solution of test chemicals is placed in each of a number of respirometer vessels. Nutrients and trace minerals are added in amounts sufficient to support biological growth and a buffer is added to maintain the pH within an acceptable range. A seed culture is added to provide microorganisms that can degrade the organic constituents in the test samples. A caustic scrubber is suspended within the headspace of the reaction vessel to absorb carbon dioxide (only in instruments using headspace oxygen transfer), and chemicals are added to inhibit nitrification in cases where only aerobic carbonaceous oxidation reactions are to be monitored. The reaction vessels are attached to a device suitable for measuring oxygen uptake or gas production, and oxygen uptake or gas production is measured over time periods ranging from a few minutes to 90 days, depending on the test objectives. The aerobic conditions of respirometry assessments were designed to simulate the scenario that the treated biosolids were fully seeded with an unlimited oxygen supply. The anaerobic conditions mimicked fully seeded biosolids without oxygen. The return activated sludge from the New Orleans' POTW was used as seed for its already acclimated microorganisms. For the same reasons, the effluent was selected as the dilution water to increased moisture content. After the heat drying process, the product was tested for total solids contents. […] The system was then sealed and set up in a 20° C. water bath for real time monitoring on oxygen uptake for 96 hours. pH and ORP values were assessed at the beginning and the end of the tests. The sludge was thickened to achieve a 5% solids content level. After the addition of ferric chloride, ferrate or both followed by centrifugation, the sludge cake was placed in an oven at 80° C. for 30 minutes to mimic the heat drying process. The dried sludge was then tested for stability by adding 98%-99% of moisture content. There were three exogenous variables: buffer, feed and seed. The buffer was 1.5M KH2PO4 at pH 7.0. […]

Question: Which “stimulation of biomass during dosing” value (biomass) does the source give for `O=S(=O)([O-])[O-].[Fe+2]` [ferrous sulphate] here?
Answer: Its value is “did not stimulate the biomass”.

Question: With `[Cl][Fe]([Cl])[Cl]` [ferric chloride] as the compound, how does the “ORP levels in the biosolids” value [1] read?
Answer: Its value is “around 0.1 V”.

Question: And the “stimulation of biomass during dosing” value (biomass)?
Answer: Its value is “did not stimulate the biomass”.

Question: What about the “stability of heat-dried biosolids” value ([2]; 1.4% to 1.5% ferric chloride, seeded) of the same compound?
Answer: Its value is “not stable”.

Question: And the SOUR ([2]; 1.4% to 1.5% ferric chloride, seeded, for 5 to 10 hours)?
Answer: The SOUR was greater than 1.5 mg O2/h/g TS.

Question: And the “time heat-dried biosolids observed to be stable” value ([2]; dose larger than 2.3% ferric chloride, seeded)?
Answer: Its value is “at least 2 days”.

Question: And the “stability of heat-dried biosolids” value ([2]; ferric chloride-treated, seed not added)?
Answer: Its value is “stable”.

Question: And the “stability of heat-dried biosolids” value ([2]; with addition of seed, ferric chloride doses less than 2.3%)?
Answer: The value was “not stable”.

Question: What does the source list for `[O]=[Fe](=[O])([O-])[O-]` [ferrate]?
Answer: ORP levels in the biosolids [1]: around 0.1 V; stabilization (SOUR) ([2]; 1.3% ferrate as the iron dose, buffer, seed and feed in respirometer): no stabilization; time until SOUR reached below the stable criteria requirement ([2]; moisture content 98%): 5 h; time until SOUR reached below the stable criteria requirement ([2]; moisture content 99%): 9 h; stabilization (SOUR) ([2]; ferrate dosages 1.2% to 4.9%, not neutralized with buffer (pH higher than 10), acetate and seed added): stable biosolids
